Earlier results in patent US20140090255A1, “Skin Engaging Member Comprising At Least One Thermally Resilient Sensate” (The Gillette Company, priority 2012, published 2014).

Conditions: concentration where the cooling effect could be clearly recognized; Emberger and Hopp 1987

Structure (SMILES)	cooling threshold
CC(C)[C@@H]1CC[C@@H](C)C[C@H]1O [L-menthol]	about 800 ppb
CC(C)[C@@H]1CC[C@@H](C)C[C@@H]1O [d-neomenthol]	about 25,000 ppb
CC(C)[C@@H]1CC[C@@H](C)C[C@@H]1O [Example 1-neomenthol, 1-neomenthol]	about 3,000 ppb
